Patent US4808618A, “Substituted 1,3-dialkylpyrido[4,3-d]pyrimidine-2,4-diones” (Nippon Zoki Pharmaceutical Co., Ltd., priority 1986, dated 1989)

Experiments:
[1] = Acute toxicity test (oral, LD50 by Litchfield-Wilcoxon's method); conditions: mouse, in vivo, ICR-strain male mice, groups of 5, mortality for 14 days
Method: The test compounds were orally administered to groups of 5 ICR-strainmale mice. LD50 value of the compound of the present invention was calculated by the Litchfield-Wilcoxon's method based on mortality for 14 days after drug administration.

[2] = system: PCA (Passive Cutaneous Anaphylaxis) reaction; assay: PCA (Passive Cutaneous Anaphylaxis) reaction in rats, anti-allergic effect; type: in vivo, rat (Wister-strain; conditions: 20 mg/kg oral, 1 hour before challenge; Wister-strain male rats; dye absorbance at 620 nm
Method: PCA (Passive Cutaneous Anaphylaxis) reaction in rats was taken as an index to an anti-allergic effect of the compound of the present invention.
In order to perform sensitization, anti-DNP-Asc (dinitrophenylated Ascaris extracts) serum diluted with saline was injected intradermally at 4 sites on the shaved back of groups of 6 Wister-strain male rats (6 weeks of age). 1 hour after oral administration of the test drug, the mixture of equivalent amount of DNP-Asc (5 mg/ml) and 2% Evans blue were intravenously injected to generate PCA reaction. 30 minutes thereafter, rats were killed by decapitation and exsanguinated. The skin was opened in order to evaluate the leakage of blue dye. The obtained skin was dissolved in 2N potassium hydroxide, then 2N phosphoric acid and acetone were added thereto. The amount of dye was determined by measurement of absorbance at 620 nm after centrifugation.

Row | SMILES | LD50 at 336 h [1] [mg/kg] | Inhibition (PCA reaction) [2] [%]
1 | Cn1c(=O)c2cnccc2n(C)c1=O [Compound 1, 1,3-dimethylpyrido[4,3-d]pyrimidine-2,4-dione] | 400 | 85.3
2 | Cn1c(=O)c2c(N)nccc2n(C)c1=O [Compound 3, 5-amino-1,3-dimethylpyrido[4,3-d]pyrimidine-2,4-dione] | 710 | 77.3
3 | CCn1c(=O)c2c(N)nccc2n(CC)c1=O [Compound 4, 5-amino-1,3-diethylpyrido[4,3-d]pyrimidine-2,4-dione] | – | 89.3
4 | CNc1nccc2c1c(=O)n(C)c(=O)n2C [Compound 6, 5-methylamino-1,3-dimethylpyrido[4,3-d]pyrimidine-2,4-dione] | 720 | 92.0
5 | CCn1c(=O)c2c(NC)nccc2n(CC)c1=O [Compound 7, 5-methylamino-1,3-diethylpyrido[4,3-d]pyrimidine-2,4-dione] | – | 72.7
6 | CC(C)Nc1nccc2c1c(=O)n(C)c(=O)n2C [Compound 8, 5-isopropylamino-1,3-dimethylpyrido[4,3-d]pyrimidine-2,4-dione] | 700 | 73.4
7 | Cn1c(=O)c2[nH]cnc2n(C)c1=O [Theophylline, reference compound] | – | 78.7
